Where a name gives a salt, the structure may show the parent alone.

We go through two compounds from patent publication US9371289B2, “Phenoxyethyl dihydro-1H-isoquinoline compounds” (Eli Lilly and Company, priority 2013, dated 2016).

Experiment [1] has as its target T1, human EP4 (Homo sapiens, UniProt P35408). As to the kind of experiment: In vitro human EP4 functional antagonist activity (inhibition of PGE2-stimulated cAMP production, HTRF). Set-up: expressed in transfected cells. Type of experiment: cell-based. The conditions noted are these: HEK293 cells stably expressing human EP4; PGE2 at EC80 (0.188 nM); read-out: IC50 measured at human EP4 (inhibition of PGE2-stimulated cAMP production). As for the experimental part:
Assays are conducted in recombinant HEK293 cells stably expressing human EP4 receptor. The cell lines are maintained by culturing in DMEM with high glucose and pyridoxine hydrochloride (Invitrogen) supplemented with 10% fetal bovine serum (FBS), 1 mM sodium pyruvate, 10 mM HEPES, 500 μg/mL geneticin and 2 mM L-glutamine. Confluent cultures are grown at 37° C. in an atmosphere containing 5% CO2. Cells are harvested using 0.25% Trypsin-EDTA, suspended in freeze media (FBS with 6% DMSO) at 10^7 cells/mL and aliquots are stored in liquid nitrogen. Just before assay, cells are thawed in DMEM, centrifuged, and resuspended in cAMP buffer.
The inhibition of PGE2-stimulated cAMP production by EP4 antagonists is measured using HTRF (Cisbio catalogue #62AM4PEB). An aliquot equivalent to 4000 cells is incubated with 50 μL cAMP assay buffer containing PGE2 in a concentration predetermined to produce an EC80 (0.188 nM PGE2 from Sigma, catalog # P5640-10 mg) and EP4 antagonists at room temperature for 20 minutes. cAMP assay buffer contains 500 mL HBSS, 0.1% BSA, 20 mM HEPES and 200 μM IBMX (Sigma I5879). […] The HTRF signal is detected using an EnVision plate reader (Perkin-Elmer) to calculate the ratio of fluorescence at 665 nm to that at 620 nm. […]
(In general: cAMP levels reflect the balance of adenylyl cyclase and phosphodiesterase activity.)

Experiment [2] deals with T1, human EP4. As to the kind of experiment: In vitro binding to human EP4 ([3H]-PGE2 displacement, HEK293 membranes). Set-up: expressed in transfected cells. The conditions noted are these: [3H]-PGE2 binding, hEP4 membranes from recombinant HEK293 cells. As for the experimental part:
(§1) hEP1 and hEP4 membranes are prepared from recombinant HEK293 cells stably expressing the human EP1 (Genbank accession number AY275470) or EP4 (Genbank accession number AY429109) receptors. hEP2 and hEP3 membranes are prepared from HEK293 cells transiently transfected with EP2 (Genbank accession number AY275471) or EP3 (isoform VI: Genbank accession number AY429108) receptor plasmids. Frozen cell pellets are homogenized in homogenization buffer using a Teflon/glass homogenizer. Membrane protein is aliquoted and quick frozen on dry ice prior to storage at −80° C. […]
(§2) Kd values for [3H]-PGE2 binding to each receptor are determined by saturation binding studies or homologous competition. […] Nonspecific binding is calculated by comparing binding in the presence and absence of 2 μM of PGE2. The membranes are harvested by filtration (TomTek harvester), washed 4 times with cold buffer (10 mM MES pH 6.0 with KOH, 10 mM MgCl2), dried in a 60° C. oven, and the radioactivity is quantified as counts per minute (CPM) using a TopCount® detector. Percent specific binding is calculated as the percent of the binding in the absence of any inhibitor, corrected for non-specific binding in the presence of 2 μM of PGE2. […]

The next experiment addresses T2, human EP2 (Homo sapiens, UniProt P43116).
T2 construct: expressed in transfected cells; host or cells: HEK293 (transient), membranes
As to the kind of experiment: In vitro binding to human EP2 ([3H]-PGE2 displacement, HEK293 membranes). The conditions noted are these: [3H]-PGE2 binding, hEP2 membranes from transiently transfected HEK293 cells. As for the experimental part:
as §1, §2

The target in experiment [3] is T1, human EP4. As to the kind of experiment: In vitro antagonist activity in human whole blood (reversal of PGE2 inhibition of LPS-induced TNFα production). Type of experiment: cell-based. The settings on record: LPS 10 μg/mL with 10 nM PGE2, geometric mean ± standard deviation, read-out: IC50 in human blood TNFα induction assay. Set-up: Blood is collected from normal volunteer donors; from tissue; host or cells: human whole blood from volunteer donors. The text has this:
The inhibitory effects of PGE2 on LPS-induced TNFα production from macrophages/monocytes are believed to be mediated by EP4 receptors (See Murase, A., et al., Life Sciences, 82:226-232 (2008)). The ability of the compound of Example 1 to reverse the inhibitory effect of PGE2 on LPS-induced TNFα production in human whole blood is an indicia of functional activity.
Blood is collected from normal volunteer donors into sodium heparin vacutainer tubes. Donors have not taken NSAIDs or celecoxib within 48 hours or glucocorticoids within two weeks prior to the donation. All tubes/donor are pooled into 50 mL Falcon conical centrifuge tubes and 98 μL/well is distributed into 96-well tissue culture plates (Falcon 3072). […] TNFα levels in 2 μL plasma are quantified by a commercially available enzyme immunoassay (R&D Systems DY210), using Immulon 4 HBX plates (Thermo 3855) and 3,3′,5,5′ tetramethylbiphenyl-4,4′-diamine substrate (KPL 50-76-03). The plates are read at A450-A650 on a plate reader (Molecular Devices Versamax) using SOFTmaxPRO (v. 4.3.1) software. IC50s are calculated using Graphpad Prism (v. 4) nonlinear regression, with sigmoidal dose response curve fitting. Results are expressed as the geometric mean±standard deviation; n=number of independent determinations.

Another experiment concerns the target T3, human EP1 (Homo sapiens, UniProt P34995).
T3 construct: expressed in transfected cells
T3 sequence (P34995 1-402): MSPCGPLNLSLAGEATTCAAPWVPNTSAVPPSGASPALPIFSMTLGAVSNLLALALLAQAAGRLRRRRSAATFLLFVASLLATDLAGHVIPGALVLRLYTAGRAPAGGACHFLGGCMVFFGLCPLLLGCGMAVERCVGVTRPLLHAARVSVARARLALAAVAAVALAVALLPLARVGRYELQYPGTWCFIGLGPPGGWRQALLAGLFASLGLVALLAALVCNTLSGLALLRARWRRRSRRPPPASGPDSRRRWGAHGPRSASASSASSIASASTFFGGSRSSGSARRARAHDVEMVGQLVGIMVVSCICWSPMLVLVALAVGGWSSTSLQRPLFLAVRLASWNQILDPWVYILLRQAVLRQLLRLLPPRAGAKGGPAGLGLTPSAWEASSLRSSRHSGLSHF
As to the kind of experiment: In vitro binding to human EP1 ([3H]-PGE2 displacement, HEK293 membranes). The conditions noted are these: [3H]-PGE2 binding, hEP1 membranes from recombinant HEK293 cells. As for the experimental part: as §1, §2

In a further experiment the target is T4, rat EP4 (Rattus norvegicus, UniProt P43114).
T4 construct: expressed in transfected cells
As to the kind of experiment: In vitro rat EP4 functional antagonist activity (cAMP HTRF). The conditions noted are these: HEK293 cells expressing rat EP4; PGE2 at EC80; n=1; read-out: IC50 measured at rat EP4 (cAMP). It counts as cell-based. As for the experimental part:
Rat EP4 cDNA (Genebank Accession# NM_03276) is cloned into pcDNA 3.1 vector and subsequently transfected in HEK293 cells for receptor expression. Rat EP4 stable clone is scaled up and then frozen down as cell bank for future compounds screening. To test EP4 antagonist compounds in rEP4 cells, thaw the frozen cells and then resuspend cells in cAMP assay buffer. The cAMP buffer is made by HBSS without Phenol Red (Hyclone, SH30268) supplemented with 20 mM HEPES (Hyclone, SH30237), 0.1% BSA (Gibco, 15260) and 125 μM IBMX (Sigma, 15879) (see e.g., Murase, A., et al., Life Sciences, 82:226-232 (2008)). The cells are plated into 96-well half area flat-bottom polystyrene black plates (Costar 3694). Compounds are serial diluted with DMSO to give 10-point concentration response curves. Then diluted compounds are added into cAMP assay buffer which contains PGE2 (Cayman 14010, in a concentration predetermined to produce an EC80) at ratio of DMSO/buffer at 1/100. The cells are treated with compounds in the presence of PGE2 (EC80 concentration) for 30 minutes at room temperature. The cAMP levels generated from the cells are quantified by a cAMP HTRF assay kit (Cisbio 62AM4PEC). The plates are read on an EnVision plate reader using HTRF optimized protocol (PerkinElmer). IC50s are calculated using Graphpad Prism (v. 4) nonlinear regression, sigmoidal dose response curve fitting.
(Time-resolved FRET reads energy transfer from a long-lived donor to a nearby acceptor.)

The target in the next experiment is T5, human EP3 (Homo sapiens, UniProt P43115).
T5 construct: expressed in transfected cells; host or cells: HEK293 (transient), membranes
T5 sequence (P43115 1-374 isoform P43115-4): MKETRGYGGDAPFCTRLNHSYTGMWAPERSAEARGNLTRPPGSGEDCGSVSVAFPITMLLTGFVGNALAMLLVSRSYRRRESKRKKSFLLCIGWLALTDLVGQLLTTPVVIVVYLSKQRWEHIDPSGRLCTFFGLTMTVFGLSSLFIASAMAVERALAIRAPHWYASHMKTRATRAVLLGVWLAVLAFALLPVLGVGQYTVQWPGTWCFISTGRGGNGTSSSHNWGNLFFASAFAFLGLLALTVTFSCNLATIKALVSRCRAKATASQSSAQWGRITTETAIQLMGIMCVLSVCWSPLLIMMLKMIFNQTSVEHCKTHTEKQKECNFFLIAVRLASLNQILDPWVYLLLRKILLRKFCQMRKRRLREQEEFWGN
As to the kind of experiment: In vitro binding to human EP3 ([3H]-PGE2 displacement, HEK293 membranes). The settings on record: [3H]-PGE2 binding, hEP3 (isoform VI) membranes from transiently transfected HEK293 cells. As for the experimental part:
as §1, §2

T1 sequence (P35408 whole entry): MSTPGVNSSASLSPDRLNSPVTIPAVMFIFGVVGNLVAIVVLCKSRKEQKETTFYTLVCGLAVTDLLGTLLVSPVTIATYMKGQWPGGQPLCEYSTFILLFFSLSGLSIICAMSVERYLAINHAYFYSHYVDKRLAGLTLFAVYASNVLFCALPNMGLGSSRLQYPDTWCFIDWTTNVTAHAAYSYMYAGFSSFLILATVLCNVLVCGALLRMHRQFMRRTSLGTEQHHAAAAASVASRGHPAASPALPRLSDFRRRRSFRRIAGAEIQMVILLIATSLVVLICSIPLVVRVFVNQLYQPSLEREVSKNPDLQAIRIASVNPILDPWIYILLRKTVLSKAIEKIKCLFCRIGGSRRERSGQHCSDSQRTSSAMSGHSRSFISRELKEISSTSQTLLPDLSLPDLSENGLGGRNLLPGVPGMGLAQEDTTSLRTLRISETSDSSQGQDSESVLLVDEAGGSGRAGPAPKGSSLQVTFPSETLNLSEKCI
T2 sequence (P43116 whole entry): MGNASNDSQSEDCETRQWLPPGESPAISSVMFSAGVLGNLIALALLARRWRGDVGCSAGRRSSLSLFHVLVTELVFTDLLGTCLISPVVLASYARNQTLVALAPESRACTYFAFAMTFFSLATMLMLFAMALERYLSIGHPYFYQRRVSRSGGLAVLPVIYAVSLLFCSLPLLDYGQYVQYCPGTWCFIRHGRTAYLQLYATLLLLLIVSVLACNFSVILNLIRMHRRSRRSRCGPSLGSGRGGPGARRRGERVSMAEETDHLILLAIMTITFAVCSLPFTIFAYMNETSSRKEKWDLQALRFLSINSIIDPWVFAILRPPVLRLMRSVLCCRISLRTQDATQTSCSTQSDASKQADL
T4 sequence (P43114 whole entry): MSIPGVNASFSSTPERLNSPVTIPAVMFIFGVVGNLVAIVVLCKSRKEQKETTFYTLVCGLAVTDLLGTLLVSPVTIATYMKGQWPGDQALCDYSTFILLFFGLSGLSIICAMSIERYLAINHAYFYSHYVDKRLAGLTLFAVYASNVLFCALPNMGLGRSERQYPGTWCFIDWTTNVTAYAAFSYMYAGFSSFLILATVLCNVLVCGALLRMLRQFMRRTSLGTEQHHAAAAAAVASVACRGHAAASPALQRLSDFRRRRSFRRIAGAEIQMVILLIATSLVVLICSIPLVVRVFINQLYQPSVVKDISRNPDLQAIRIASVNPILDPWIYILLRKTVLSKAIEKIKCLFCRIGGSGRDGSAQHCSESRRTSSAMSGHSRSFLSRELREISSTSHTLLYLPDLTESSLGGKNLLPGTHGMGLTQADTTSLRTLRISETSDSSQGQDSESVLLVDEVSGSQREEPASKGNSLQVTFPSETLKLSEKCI

As usually defined, the IC50 is the concentration needed to halve the response being measured. What is called Ki is a dissociation constant, usually derived from enzyme kinetics or from competition with a known ligand. With `C[C@H](NC(=O)[C@H]1Cc2ccccc2CN1CCOc1ccccc1)c1ccc(C(=O)O)cc1` [Example 1, 4-[(1S)-1-[[(3R)-2-(2-phenoxyethyl)-3,4-dihydro-1H-isoquinoline-3-carbonyl]amino]ethyl]benzoic acid], the IC50 at human EP4 [1] was determined as 0.752 ± 0.538 nM; at human EP4 [3], 39 ± 21 nM; on rat EP4, 2 nM. Moreover, the Ki was 0.403 ± 0.247 nM on human EP4 [2], 1320 ± 1780 nM on human EP2, 7920 ± 5810 nM on human EP1 and greater than 14800 nM at human EP3.

As for `C[C@H](NC(=O)[C@H]1Cc2ccccc2CN1CCOc1ccc(F)cc1)c1ccc(C(=O)O)cc1` [Example 2, 4-[(1S)-1-[[(3R)-2-(2-(4-fluorophenoxy)ethyl)-3,4-dihydro-1H-isoquinoline-3-carbonyl]amino]ethyl]benzoic acid hydrochloride], the IC50 on human EP4 [1] is 0.45 ± 0.256 nM; at human EP4 [3], 61 ± 55 nM; on rat EP4, 6.7 nM. Also, the Ki is 0.38 ± 0.142 nM on human EP4 [2], 331 ± 72 nM at human EP2, 4650 nM at human EP1 and greater than 14600 nM on human EP3.
